From patent US12324802B2, “Modulators of cystic fibrosis transmembrane conductance regulator” (Vertex Pharmaceuticals Incorporated, priority 2020, dated 2025)
Where two headings read alike, the source gives them in different places.

Columns and labels:
[1] = from CC(C)(C)OC(=O)NCC(C)(C)OCCC[C@@](OCc1ccccc1)(c1nnc(-c2nc(Cl)c(C(F)(F)F)cc2[N+](=O)[O-])o1)C(F)(F)F; snar bond; 14-membered ring; TFA; then DIEA; DCM; 0.96 mM; 25.0 °C; 2 steps
[2] = not given; remark: listed apart in the source

Molecule: 6-benzyloxy-12,12-dimethyl-17-nitro-6,15-bis(trifluoromethyl)-19-oxa-3,4,13,18-tetrazatricyclo[12.3.1.12,5]nonadeca-1(18),2,4,8,14,16-hexaen-7-ol (E/Z olefin mixture, cis diol)
- ring closure, yield after HPLC (rcm bond, 14-membered ring, Zhan catalyst-1B, 70.0 °C): 49%

Molecule: CN1CCN(C)c2nc(c(NC(=O)OC(C)(C)C)cc2C(F)(F)F)C2=NN=C(O2)C(OCc2ccccc2)(C(F)(F)F)CCC1=O (stereo not shown)
- ring closure, yield after HPLC (from CNCCN(C)c1nc(-c2nnc(C(CCC(=O)O)(OCc3ccccc3)C(F)(F)F)o2)c(NC(=O)OC(C)(C)C)cc1C(F)(F)F, amide bond, 14-membered ring, HATU/DIEA, DMF, 9.16 mM, 25.0 °C, 3.0 h): 70%

Molecule: CC1(C)CCC=CC[C@](OCc2ccccc2)(C(F)(F)F)C2=NN=C(O2)c2nc(c(C(F)F)cc2[N+](=O)[O-])N1 (mixture of isomers)
- ring closure, yield after HPLC (from C=CCCC(C)(C)Nc1nc(-c2nnc([C@@](CC=C)(OCc3ccccc3)C(F)(F)F)o2)c([N+](=O)[O-])cc1C(F)F, rcm bond, 14-membered ring, Zhan catalyst-1B, DCE, 5.67 mM, 65.0 °C, 4.5 h): 20%

Molecule: CC1(C)CNc2nc(c([N+](=O)[O-])cc2C(F)(F)F)C2=NN=C(O2)[C@@](OCc2ccccc2)(C(F)(F)F)CCCO1
- ring closure, crude yield [1]: 99%

Molecule: CC(C)(C)OC(=O)Nc1cc(C(F)(F)F)c2nc1-c1nnc(o1)C(OCc1ccccc1)(C(F)(F)F)CCC=CC1CCCN21 (mixture of isomers)
- ring closure, yield after HPLC (from C=CCCC(OCc1ccccc1)(c1nnc(-c2nc(N3CCCC3C=C)c(C(F)(F)F)cc2NC(=O)OC(C)(C)C)o1)C(F)(F)F, rcm bond, 13-membered ring, Zhan-1B (two charges), DCE, 6.25 mM, 85.0 °C, 23.0 h): 3%

Molecule: CC(C)(C)OC(=O)Nc1cc(C(F)(F)F)c2nc1-c1nnc(o1)C(OCc1ccccc1)(C(F)(F)F)CCCCC1CCN2C1 (stereo not shown)
- ring closure, isolated yield ([2]; from CC(C)(C)OC(=O)Nc1cc(C(F)(F)F)c(Br)nc1-c1nnc(C(CCCCC2CCNC2)(OCc2ccccc2)C(F)(F)F)o1, snar bond, 14-membered ring, DIEA, MeCN, 6.33 mM, 80.0 °C, 16.0 h): 79%

Molecule: O=[N+]([O-])c1cc(C(F)(F)F)c2nc1-c1nnc(o1)C(OCc1ccccc1)(C(F)(F)F)CCC=CCCN2Cc1ccccc1 (mixture of isomers)
- ring closure, isolated yield ([2]; from C=CCCN(Cc1ccccc1)c1nc(-c2nnc(C(CCC=C)(OCc3ccccc3)C(F)(F)F)o2)c([N+](=O)[O-])cc1C(F)(F)F, rcm bond, 14-membered ring, Zhan-1B, DCE, 1.77 mM, 75.0 °C, 3.0 h): 68%

Molecule: O=[N+]([O-])c1cc(C(F)(F)F)c2nc1-c1nnc(o1)[C@@](OCc1ccccc1)(C(F)(F)F)CC=CCCC(c1ncco1)N2 (mixture of isomers)
- ring closure, isolated yield ([2]; from C=CCCC(Nc1nc(-c2nnc([C@@](CC=C)(OCc3ccccc3)C(F)(F)F)o2)c([N+](=O)[O-])cc1C(F)(F)F)c1ncco1, rcm bond, 14-membered ring, Zhan catalyst-1B, DCE, 2.9 mM, 70.0 °C, 4.25 h): 46%

Molecule: CC1(C)COCCCC(OCc2ccccc2)(C(F)(F)F)C(=O)NNC(=O)c2nc(c(C(F)(F)F)cc2[N+](=O)[O-])N1 (stereo not shown)
- ring closure, isolated yield ([2]; from CC(C)(COCCCC(OCc1ccccc1)(C(=O)O)C(F)(F)F)Nc1nc(C(=O)NN)c([N+](=O)[O-])cc1C(F)(F)F, amide bond, 15-membered ring, BOP/HOBt/DIEA, DMF, 2.78 mM, 25.0 °C, 24.0 h): 28%

Molecule: CC(C)(C)OC(=O)Nc1cc(C(F)(F)F)c2nc1-c1nnc(o1)C(OCc1ccccc1)(C(F)(F)F)CC=CC[C@@H]1CCCN21 (mixture of isomers)
- ring closure, isolated yield ([2]; from C=CC[C@@H]1CCCN1c1nc(-c2nnc(C(CC=C)(OCc3ccccc3)C(F)(F)F)o2)c(NC(=O)OC(C)(C)C)cc1C(F)(F)F, rcm bond, 13-membered ring, Zhan-1B (two charges), DCE, 6.47 mM, 80.0 °C, 36.0 h): 6.5%

Molecule: CC1(C)CCC=CC(F)(F)C(OCc2ccccc2)C2=NN=C(O2)c2nc(c(C(F)(F)F)cc2[N+](=O)[O-])N1 (mixture of isomers)
- ring closure, isolated yield ([2]; from C=CCCC(C)(C)Nc1nc(-c2nnc(C(OCc3ccccc3)C(F)(F)C=C)o2)c([N+](=O)[O-])cc1C(F)(F)F, rcm bond, 14-membered ring, Grubbs II, 1,2-dichloroethane, 1.85 mM, 75.0 °C, 1.67 h): 40%

Molecule: CC(C)(C)OC(=O)Nc1cc(C(F)(F)F)c2nc1-c1nnc(o1)C(OCc1ccccc1)(C(F)(F)F)CCC=CC[C@@H]1CCCN21 (mixture of isomers)
- ring closure, isolated yield ([2]; from C=CCCC(OCc1ccccc1)(c1nnc(-c2nc(N3CCC[C@H]3CC=C)c(C(F)(F)F)cc2NC(=O)OC(C)(C)C)o1)C(F)(F)F, rcm bond, 14-membered ring, Zhan-1B (two charges), DCE, 7.07 mM, 70.0 °C, 20.0 h): 61%

Molecule: COCCN1CCC=CCCC(OCc2ccccc2)(C(F)(F)F)C2=NN=C(O2)c2nc1c(C(F)(F)F)cc2NC(=O)OC(C)(C)C (mixture of isomers)
- ring closure, isolated yield ([2]; from C=CCCN(CCOC)c1nc(-c2nnc(C(CCC=C)(OCc3ccccc3)C(F)(F)F)o2)c(NC(=O)OC(C)(C)C)cc1C(F)(F)F, rcm bond, 14-membered ring, Zhan-1B (19 mol%), DCE, 3.22 mM, 70.0 °C, 3.0 h): 60%

Molecule: O=[N+]([O-])c1cc(C(F)(F)F)c2nc1-c1nnc(o1)C(OCc1ccccc1)(C(F)(F)F)CCC=CCCN2CCOCc1ccccc1 (mixture of isomers)
- ring closure, isolated yield ([2]; from C=CCCN(CCOCc1ccccc1)c1nc(-c2nnc(C(CCC=C)(OCc3ccccc3)C(F)(F)F)o2)c([N+](=O)[O-])cc1C(F)(F)F, rcm bond, 14-membered ring, Zhan-1B (25 mol%), DCE, 2.75 mM, 75.0 °C, 2.0 h): 59%

Molecule: CC(C)(C)OC(=O)Nc1cc(C(F)(F)F)c2nc1-c1nnc(o1)[C@](O)(C(F)(F)F)c1cc(ccc1F)C=CC[C@@H]1CCCN21 (mixture of isomers)
- ring closure, isolated yield ([2]; from C=CC[C@@H]1CCCN1c1nc(-c2nnc([C@@](O)(c3cc(I)ccc3F)C(F)(F)F)o2)c(NC(=O)OC(C)(C)C)cc1C(F)(F)F, cc_pd bond, 15-membered ring, Pd(OAc)2/P(o-tol)3/Et3N, MeCN, 9.5 mM, 80.0 °C, 22.0 h): 56%

Molecule: CC(C)(C)OC(=O)Nc1cc(C(F)(F)F)c2nc1-c1nnc(o1)C(OCc1ccccc1)(C(F)(F)F)CCC=CCC1CCCN21 (mixture of isomers)
- ring closure, isolated yield ([2]; from C=CCCC(OCc1ccccc1)(c1nnc(-c2nc(N3CCCC3CC=C)c(C(F)(F)F)cc2NC(=O)OC(C)(C)C)o1)C(F)(F)F, rcm bond, 14-membered ring, Grubbs II (21 mol%), DCE, 15.2 mM, 80.0 °C, 0.75 h): 84%
